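Method: 48-hour compound exposure of cells in 96-well plates, five concentrations, linear interpolation of endpoints. GI50: concentration for 50% inhibition of growth. TGI marks complete inhibition of growth.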
The compounds below were run on OVCAR-5 ovarian (assay: inhibition of tumour cell growth, NCI panel, 48 h).

SMILES	GI50 [µM]	TGI [µM]
CN(C)c1ccc(/C=C\C2=[N+](C)c3ccccc3C2(C)C)cc1	3.18	43.8
COc1cc2c(c3oc4c(O)cccc4c(=O)c13)CC(C(C)(O)CO)O2 (centres undefined)	–	> 100
CC(=O)OC1OC([C@@H]2c3cccc(O)c3C(=O)c3c(O)cc(C)cc32)C(O)C(O)C1O (some centres undefined)	0.0323	0.36
Nc1nc(-n2c(-c3ccccc3)nc3c(Br)cc(Br)cc3c2=O)nnc1-c1cccc(Cl)c1Cl	6.22	50.9
C[N+](C)(C)CC(=O)N/N=C(/CC(=O)CC(C1=C(O)c2ccccc2OC1)c1ccccc1)C(=O)Nc1cccc(Cl)c1 (centres undefined)	–	> 100
O=C1/C(=C/c2ccc(O)c(O)c2)CCC/C1=C\c1ccc(O)c(O)c1	–	31.2
Cc1c(C(=O)C/C(=N/NC(=O)c2ccccc2O)C(=O)Nc2ccccc2C(C)C)[n+](=O)c2ccccc2n1[O-]	–	> 100
CCCCCCCCCCCC(=O)OCCOCCOCCOCCOCCOCc1ccccc1	–	> 100
COC(=O)/C=C1\S/C(=N\NC(=O)c2cc3ccc2/C=C\c2ccc(cc2)/C=C\3)N(c2ccccc2)C1=O	1.92	3.84
COC([CH2][Hg][n]1cnc2c1c(=O)n(C)c(=O)n2C)CN1C(=O)c2ccccc2S1(=O)=O (centres undefined)	> 100	> 100
CCCC1C(=O)CCc2c(OC)ccc(OC)c21 (centres undefined)	–	> 100
O=C(CCc1nc(=S)[nH][nH]1)Nc1cc(Cl)c(Cl)cc1Cl	–	> 100
Cc1ccc(S(=O)(=O)OC[C@@H]2CO2)cc1	–	> 100
C=CCO[C@H]1CO[C@H]2[C@@H]1OC[C@@H]2Oc1ccc(Nc2ccnc(Nc3ccc(O[C@H]4CO[C@H]5[C@@H]4OC[C@@H]5OCC=C)c(Cl)c3)n2)cc1Cl	1.83	3.29
CCn1c(C)nn2c(=O)c3ccccc3nc2c1=O	–	> 100
CCOC(=O)CCC1(C(=O)OCC)CCCCC1=O (centres undefined)	–	> 100
CCOC1Oc2ccccc2C(=O)/C1=C/Nc1ccc(C(C)=O)cc1 (centres undefined)	19.5	48.3
Cc1nc2c(ccc3ncccc32)[nH]1	–	> 100
O=C(CCNC12CC3CC(CC(C3)C1)C2)c1ccccc1	–	71.7
COc1cccc(-c2cc(-c3cccc(NS(C)(=O)=O)c3)nc(N)c2C#N)c1O	1.08	> 100
CCN1CCN(Cc2ccc(NC(=O)c3cccc(C#Cc4cccc5[nH]nc(N)c45)c3)cc2C(F)(F)F)CC1	0.685	2.07
Cc1cc(N(CCC#N)CCC#N)ccc1N=Nc1ccc(S(N)(=O)=O)cc1	–	> 100
CC(=O)[CH-]C(=O)c1ccccc1.CC(=O)[CH-]C(=O)c1ccccc1.CN(C)c1ccc([O-])cc1.CN(C)c1ccc([O-])cc1.Cl.[Ti+4]	49.2	> 100
Nc1ccccc1S(=O)(=O)N(CC(=O)O)c1ccccc1	–	> 100
O=C(Nc1ccc(F)cc1)Nc1ccc(Cl)c([N+](=O)[O-])c1	3.55	14.9
CNC(=S)OCCC(C)CCCC(C)C (centres undefined)	–	23.9
COC1/C=C/OC2(C)Oc3c(C)c(O)c4c(O)c(c(/C=N/Nc5ccc([N+](=O)[O-])cc5[N+](=O)[O-])c(O)c4c3C2=O)NC(=O)C(C)=C/C=C/C(C)C(O)C(C)C(O)C(C)C(OC(C)=O)C1C (centres undefined)	3.59	11.6
COC(=O)/C(C#N)=C1\NC(=O)c2ccccc21	–	> 100
Cc1ccc(NC(=O)Nc2ccc(-c3cccnc3)cc2N2CCC(CO)CC2)cc1	3.64	> 100

Each compound was assayed on SNB-19 CNS (assay: inhibition of tumour cell growth, NCI panel, 48 h).

SMILES	GI50 [µM]	TGI [µM]
CN(C)c1ccc(/C=C\C2=[N+](C)c3ccccc3C2(C)C)cc1	0.775	38.1
COc1cc2c(c3oc4c(O)cccc4c(=O)c13)CC(C(C)(O)CO)O2 (centres undefined)	–	> 100
CC(=O)OC1OC([C@@H]2c3cccc(O)c3C(=O)c3c(O)cc(C)cc32)C(O)C(O)C1O (some centres undefined)	0.392	21.4
Nc1nc(-n2c(-c3ccccc3)nc3c(Br)cc(Br)cc3c2=O)nnc1-c1cccc(Cl)c1Cl	29.9	> 100
O=C1/C(=C/c2ccc(O)c(O)c2)CCC/C1=C\c1ccc(O)c(O)c1	–	29.1
Cc1c(C(=O)C/C(=N/NC(=O)c2ccccc2O)C(=O)Nc2ccccc2C(C)C)[n+](=O)c2ccccc2n1[O-]	–	> 100
CCCCCCCCCCCC(=O)OCCOCCOCCOCCOCCOCc1ccccc1	–	> 100
COC(=O)/C=C1\S/C(=N\NC(=O)c2cc3ccc2/C=C\c2ccc(cc2)/C=C\3)N(c2ccccc2)C1=O	1.95	4.25

From PubChem BioAssay (NCI)
